Ki and Ratio Ki data for four compounds are collected here from ChEMBL document CHEMBL1144186, “New iodoreboxetine analogues for SPECT imaging of the noradrenaline transporter” (Bioorg Med Chem Lett, 2008).

Assay [1] can be described thus: Displacement of [3H]nisoxetine from rat brain NAT. The format is tissue-based. On the technique in general: In a radioligand displacement assay an active substance lowers the binding of a labelled ligand.
The target of assay [2] is Sodium-dependent serotonin transporter (Rattus norvegicus, UniProt P31652). Description: Displacement of [3H]citalopram from rat brain SERT.
For assay [3], the target named is Sodium-dependent dopamine transporter (Rattus norvegicus, UniProt P23977). Kind of assay: Displacement of [3H]WIN-35428 from rat brain DAT. In kind it is tissue-based.
For assay [4], the species on record is Rattus norvegicus. Description: Selectivity for rat NAT over rat SERT.
The species entered for assay [5] is Rattus norvegicus. Description: Selectivity for rat NAT over rat DAT.

The structures appear in SMILES notation.

Sequence of Sodium-dependent serotonin transporter (P31652 whole entry): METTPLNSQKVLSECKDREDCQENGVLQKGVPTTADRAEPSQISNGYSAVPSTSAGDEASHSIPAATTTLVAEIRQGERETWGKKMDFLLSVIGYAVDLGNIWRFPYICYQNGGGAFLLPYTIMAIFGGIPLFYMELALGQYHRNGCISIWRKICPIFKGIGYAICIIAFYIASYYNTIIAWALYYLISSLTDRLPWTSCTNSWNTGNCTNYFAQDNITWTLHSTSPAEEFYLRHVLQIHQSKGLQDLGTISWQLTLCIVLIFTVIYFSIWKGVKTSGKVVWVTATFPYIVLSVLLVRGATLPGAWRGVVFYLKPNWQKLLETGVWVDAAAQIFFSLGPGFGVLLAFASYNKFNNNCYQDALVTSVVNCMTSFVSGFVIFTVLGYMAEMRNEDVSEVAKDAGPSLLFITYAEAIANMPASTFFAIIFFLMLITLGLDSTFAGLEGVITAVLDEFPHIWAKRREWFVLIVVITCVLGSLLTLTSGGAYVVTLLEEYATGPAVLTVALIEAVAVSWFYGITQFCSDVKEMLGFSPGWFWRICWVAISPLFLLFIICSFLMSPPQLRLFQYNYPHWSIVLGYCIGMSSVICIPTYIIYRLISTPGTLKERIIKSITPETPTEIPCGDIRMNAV
Sequence of Sodium-dependent dopamine transporter (P23977 whole entry): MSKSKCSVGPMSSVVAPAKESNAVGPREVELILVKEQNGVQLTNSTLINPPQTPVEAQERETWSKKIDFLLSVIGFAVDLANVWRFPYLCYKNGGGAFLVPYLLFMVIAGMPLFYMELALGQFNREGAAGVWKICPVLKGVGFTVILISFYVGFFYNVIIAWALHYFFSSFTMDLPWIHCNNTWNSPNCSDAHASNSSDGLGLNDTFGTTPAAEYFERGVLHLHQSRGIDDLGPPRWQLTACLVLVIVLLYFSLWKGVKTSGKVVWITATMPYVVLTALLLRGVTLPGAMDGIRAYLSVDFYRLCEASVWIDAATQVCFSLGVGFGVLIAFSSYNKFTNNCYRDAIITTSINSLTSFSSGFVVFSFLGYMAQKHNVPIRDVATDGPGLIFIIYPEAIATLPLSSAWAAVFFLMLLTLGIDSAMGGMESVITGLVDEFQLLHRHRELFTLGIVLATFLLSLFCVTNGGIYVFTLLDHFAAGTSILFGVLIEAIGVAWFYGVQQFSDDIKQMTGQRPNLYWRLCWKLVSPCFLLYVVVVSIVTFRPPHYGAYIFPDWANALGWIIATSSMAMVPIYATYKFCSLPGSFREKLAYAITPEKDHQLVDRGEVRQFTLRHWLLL

As to `CCOc1ccccc1O[C@H](c1ccc(I)cc1)[C@H]1CNCCO1`, the Ki (as a rule, the dissociation constant of the complex between target and ligand, obtained from inhibition or displacement) in assay [1] amounted to 64 nM; in assay [2] it was 646 nM; in assay [3], 716 nM.
Compound `CCOc1ccccc1O[C@@H](c1ccc(I)cc1)[C@H]1CNCCO1` had a Ki in assay [1] of 58.2 nM.
As to `CCOc1ccccc1O[C@@H](c1ccc(I)cc1)[C@@H]1CNCCO1`, the Ratio Ki in the assay listed under Rattus norvegicus [4] is 50; in the assay filed under Rattus norvegicus [5], 25. The Ki in assay [1] stood at 53.8 nM; in assay [2] it was 2790 nM; in assay [3], 1460 nM.
Compound `CCOc1ccccc1O[C@H](c1ccc(I)cc1)[C@@H]1CNCCO1` returned a Ki in assay [1] of 321 nM.
